The results in this text go back to US11479551B2, “MTA-cooperative PRMT5 inhibitors” (Mirati Therapeutics, Inc., priority 2019, dated 2022).

In this experiment the target is PRMT5/MEP50 complex (Homo sapiens (Human), UniProt O14744). The experiment in a line: PRMT5:MEP50 FlashPlate Assay (histone H4 peptide substrate, plus and minus MTA). In kind it is biochemical. The method, then:
The PRMT5 inhibitory activity of compounds of the present invention was determined using either a PRMT5:MEP50 FlashPlate Assay (Reaction Biology Corporation) or a PRMT5:MEP50 HotSpot Assay (Reaction Biology Corporation).
1. PRMT5:MEP50 FlashPlate Assay

The mark [1] stands for this setting: IC50 + 2 μM MTA (nM), in the presence of 2 μM MTA.
Where [2] appears, read: in the absence of MTA, read-out: IC50.

Where two headings read alike, the source gives them in different places.

Chain of PRMT5/MEP50 complex (O14744 2-637): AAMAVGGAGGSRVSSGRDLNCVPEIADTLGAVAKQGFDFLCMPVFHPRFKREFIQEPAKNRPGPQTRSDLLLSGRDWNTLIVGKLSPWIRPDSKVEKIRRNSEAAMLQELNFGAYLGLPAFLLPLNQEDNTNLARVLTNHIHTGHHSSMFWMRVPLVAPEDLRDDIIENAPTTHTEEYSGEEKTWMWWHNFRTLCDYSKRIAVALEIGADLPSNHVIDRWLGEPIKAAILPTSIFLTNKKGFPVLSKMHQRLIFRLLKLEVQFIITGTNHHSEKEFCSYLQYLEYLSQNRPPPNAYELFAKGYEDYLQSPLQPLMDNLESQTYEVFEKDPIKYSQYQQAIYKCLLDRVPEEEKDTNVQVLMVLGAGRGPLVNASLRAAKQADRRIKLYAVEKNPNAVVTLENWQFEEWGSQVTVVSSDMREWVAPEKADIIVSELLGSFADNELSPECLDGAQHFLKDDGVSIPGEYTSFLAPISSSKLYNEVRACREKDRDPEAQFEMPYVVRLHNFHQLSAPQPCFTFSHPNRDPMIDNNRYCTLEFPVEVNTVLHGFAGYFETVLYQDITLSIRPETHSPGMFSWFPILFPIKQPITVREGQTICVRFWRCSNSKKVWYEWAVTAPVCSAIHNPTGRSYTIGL
Chain of PRMT5/MEP50 complex (Q9BQA1 2-342 partner): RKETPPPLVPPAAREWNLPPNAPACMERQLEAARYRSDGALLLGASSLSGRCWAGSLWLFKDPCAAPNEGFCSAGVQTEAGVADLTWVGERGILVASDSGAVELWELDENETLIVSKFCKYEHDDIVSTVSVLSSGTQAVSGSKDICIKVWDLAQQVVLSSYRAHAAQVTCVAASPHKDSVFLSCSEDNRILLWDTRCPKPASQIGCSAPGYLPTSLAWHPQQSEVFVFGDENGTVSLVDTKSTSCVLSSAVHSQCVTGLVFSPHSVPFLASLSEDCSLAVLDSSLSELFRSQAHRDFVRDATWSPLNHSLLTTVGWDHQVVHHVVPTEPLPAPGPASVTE

In the case of `Cc1nc2cnccn2c1-c1ccc2c(=O)[nH]nc(CN)c2c1` [Example 4-23, 4-(aminomethyl)-6-(2-methylimidazo[1,2-a]pyrazin-3-yl)phthalazin-1(2H)-one], the 50% inhibitory concentration (IC50) under setting [1] was more than 100000 nM and the IC50 under setting [2] is more than 100000 nM.

Regarding `Cc1ccncc1-c1ccc2c(=O)[nH]nc(CN)c2c1` [Example 3-19, 4-(aminomethyl)-6-(4-methylpyridin-3-yl)phthalazin-1(2H)-one], the half-inhibitory concentration (IC50) reads like this: under setting [1], 180 nM; under setting [2], 6360 nM.

`NCc1n[nH]c(=O)c2ccc(-c3cncc(Oc4ccccc4F)c3)cc12` [Example 4-70, 4-(aminomethyl)-6-(5-(2-fluorophenoxy)pyridin-3-yl)phthalazin-1(2H)-one]: the IC50 came to 10 nM under setting [1] and 221 nM under setting [2].

For `NCc1n[nH]c(=O)c2ccc(-c3cncc(Sc4ccc(Cl)cc4)c3)cc12` [Example 4-57, 4-(aminomethyl)-6-(5-((4-chlorophenyl)thio)pyridin-3-yl)phthalazin-1(2H)-one], the IC50 runs as follows: under setting [1], 11 nM; under setting [2], 85 nM.

With `NCc1n[nH]c(=O)c2ccc(-c3cncc(F)c3)cc12` [Example 3-41, 4-(aminomethyl)-6-(5-fluoropyridin-3-yl)phthalazin-1(2H)-one], the half-maximal inhibitory concentration (IC50) by setting is: under setting [1], 1600 nM; under setting [2], 27500 nM.

As for `NCc1n[nH]c(=O)c2ccc(-c3cncc(Oc4ccccn4)c3)cc12` [Example 4-63, 4-(aminomethyl)-6-(5-(pyridin-2-yloxy)pyridin-3-yl)phthalazin-1(2H)-one], the 50% inhibitory concentration (IC50) is, setting by setting: under setting [1], 58 nM; under setting [2], 1380 nM.

With `NCc1n[nH]c(=O)c2ccc(C3CCOC3)cc12` (racemic) [Example 5-2, (R,S)-4-(aminomethyl)-6-(THF-3-yl)phthalazin-1(2H)-one], the IC50 by setting is: under setting [1], 57000 nM; under setting [2], more than 100000 nM.

With `Cc1ncc(-c2ccc3c(=O)[nH]nc(CN)c3c2)n1CC#N` [Example 4-109, 2-(5-(4-(aminomethyl)-1-oxo-1,2-dihydrophthalazin-6-yl)-2-methyl-1H-imidazol-1-yl)acetonitrile], the IC50 by setting is: under setting [1], 120 nM; under setting [2], 4870 nM.

With `N#Cc1cncc(-c2ccc3c(=O)[nH]nc(CN)c3c2)c1` [Example 3-37, 5-(4-(aminomethyl)-1-oxo-1,2-dihydrophthalazin-6-yl)nicotinonitrile], the concentration for half-maximal inhibition (IC50) by setting is: under setting [1], 3200 nM; under setting [2], 72100 nM.

As to `NCc1n[nH]c(=O)c2ccc(-c3cncc(Oc4ccncc4)c3)cc12` [Example 7-1, 4-(aminomethyl)-6-(5-(pyridin-4-yloxy)pyridin-3-yl)phthalazin-1(2H)-one], the IC50 is, setting by setting: under setting [1], 490 nM; under setting [2], 11200 nM.

As to `Cc1cc(-c2ccc3c(=O)[nH]nc(CN)c3c2)[nH]n1` [Example 3-21, 4-(aminomethyl)-6-(5-methyl-1H-pyrazol-3-yl)phthalazin-1(2H)-one], the IC50 runs as follows: under setting [1], 1800 nM; under setting [2], 39400 nM.

With `NCc1n[nH]c(=O)c2ccc(-c3cnn4ccccc34)cc12` [Example 3-16, 4-(aminomethyl)-6-(pyrazolo[1,5-a]pyridin-3-yl)phthalazin-1(2H)-one], the half-maximal inhibitory concentration (IC50) by setting is: under setting [1], 13 nM; under setting [2], 186 nM.

Regarding `NCc1n[nH]c(=O)c2ccc(-n3ccnc3)cc12` [Example 6-1, 4-(aminomethyl)-6-imidazol-1-yl-2H-phthalazin-1-one], the 50% inhibitory concentration (IC50) under setting [1] came out at 5800 nM and the IC50 under setting [2] is more than 100000 nM.

Turning to `COCc1cncc(-c2ccc3c(=O)[nH]nc(CN)c3c2)c1` [Example 3-46, 4-(aminomethyl)-6-(5-(methoxymethyl)pyridin-3-yl)phthalazin-1(2H)-one], the half-maximal inhibitory concentration (IC50) worked out at 570 nM under setting [1] and 7880 nM under setting [2].

On to `NCc1n[nH]c(=O)c2ccc(-c3cnn(CCO)c3)cc12` [Example 3-32, 4-(aminomethyl)-6-(1-(2-hydroxyethyl)-1H-pyrazol-4-yl)phthalazin-1(2H)-one], for which the half-inhibitory concentration (IC50) was 11600 nM under setting [2] and 710 nM (read-out: IC50 + 2 μM MTA, in the presence of 2 μM MTA).

Take `N#Cc1ccc(-c2cncc(-c3ccc4c(=O)[nH]nc(CN)c4c3)c2)c(C#N)c1` [Example 8-2, 4-(5-(4-(aminomethyl)-1-oxo-1,2-dihydrophthalazin-6-yl)pyridin-3-yl)isophthalonitrile]: the half-maximal inhibitory concentration (IC50) by setting is: under setting [1], 36 nM; under setting [2], 3150 nM.

For `NCc1n[nH]c(=O)c2ccc(-c3cnn4c3CN(C3CC3)CC4)cc12` [Example 4-82, 4-(aminomethyl)-6-(5-cyclopropyl-4,5,6,7 tetrahydropyrazolo[1,5-a]pyrazin-3-yl)phthalazin-1(2H)-one], the IC50 stood at 28 nM under setting [1] and 1340 nM under setting [2].

Regarding `Cc1cccc(Sc2cncc(-c3ccc4c(=O)[nH]nc(CN)c4c3)c2)c1` [Example 4-61, 4-(aminomethyl)-6-(5-(m-tolylthio)pyridin-3-yl)phthalazin-1(2H)-one], the half-maximal inhibitory concentration (IC50) is, setting by setting: under setting [1], 3 nM; under setting [2], 149 nM.

Consider `NCc1n[nH]c(=O)c2ccc(-c3nncn3Cc3ccccc3)cc12` [Example 3-57, 4-(aminomethyl)-6-(4-benzyl-4H-1,2,4-triazol-3-yl)phthalazin-1(2H)-one], for which the IC50 under setting [1] was 30000 nM.

Regarding `NCc1n[nH]c(=O)c2cc(-c3ccccn3)ccc12` [Example 1-4, 4-(aminomethyl)-7-(pyridin-2-yl)phthalazin-1(2H)-one], the IC50 by setting is: under setting [1], 39000 nM; under setting [2], more than 100000 nM.

Turning to `NCc1n[nH]c(=O)c2ccc(-c3cncc(C(F)(F)F)c3)cc12` [Example 3-43, 4-(aminomethyl)-6-(5-(trifluoromethyl)pyridin-3-yl)phthalazin-1(2H)-one], the IC50 under setting [1] came to 340 nM and the IC50 under setting [2] stood at 6500 nM.

`NCc1n[nH]c(=O)c2ccc(-c3cnc4c(F)cccn34)cc12` [Example 4-22, 4-(aminomethyl)-6-(8-fluoroimidazo[1,2-a]pyridin-3-yl)phthalazin-1(2H)-one]: the IC50 is 370 nM under setting [1] and 8680 nM under setting [2].

In the case of `NCc1n[nH]c(=O)c2ccc(-c3cnco3)cc12` [Example 3-28, 4-(aminomethyl)-6-(oxazol-5-yl)phthalazin-1(2H)-one], the half-maximal inhibitory concentration (IC50) was more than 100000 nM under setting [1] and more than 100000 nM under setting [2].

As for `NCc1n[nH]c(=O)c2ccc(-c3cnc4cc(F)ccn34)cc12` [Example 4-29, 4-(aminomethyl)-6-(7-fluoroimidazo[1,2-a]pyridin-3-yl)phthalazin-1(2H)-one], the 50% inhibitory concentration (IC50) is, setting by setting: under setting [1], 190 nM; under setting [2], 4030 nM.

On to `Cc1cc(-c2ccc3c(=O)[nH]nc(CN)c3c2)cnc1C` [Example 3-4, 4-(aminomethyl)-6-(5,6-dimethylpyridin-3-yl)phthalazin-1(2H)-one], for which the IC50 came out at 1400 nM under setting [1] and 38300 nM under setting [2].

For `N#Cc1cc(Cl)ccc1-c1cncc(-c2ccc3c(=O)[nH]nc(CN)c3c2)c1` [Example 8-4, 2-(5-(4-(aminomethyl)-1-oxo-1,2-dihydrophthalazin-6-yl)pyridin-3-yl)-5-chlorobenzonitrile], the concentration for half-maximal inhibition (IC50) was 3.1 nM under setting [1] and 313 nM under setting [2].

Turning to `NCc1n[nH]c(=O)c2ccc(-c3cnsc3)cc12` [Example 4-2, 4-(aminomethyl)-6-(isothiazol-4-yl)phthalazin-1(2H)-one], the IC50 under setting [1] was 490 nM and the half-inhibitory concentration (IC50) under setting [2] stood at 13800 nM.

Take `NCc1n[nH]c(=O)c2ccc(-c3cncc(Sc4cccc(Cl)c4)c3)cc12` [Example 4-56, 4-(aminomethyl)-6-(5-((3-chlorophenyl)thio)pyridin-3-yl)phthalazin-1(2H)-one]: the half-maximal inhibitory concentration (IC50) is 3.8 nM under setting [1] and 107 nM under setting [2].

In the case of `CC(C)Cn1cc(-c2ccc3c(=O)[nH]nc(CN)c3c2)cn1` [Example 3-27, 4-(aminomethyl)-6-(1-isobutyl-1H-pyrazol-4-yl)phthalazin-1(2H)-one], the IC50 by setting is: under setting [1], 4200 nM; under setting [2], 59000 nM.

Take `COCc1c[nH]c2ncc(-c3ccc4c(=O)[nH]nc(CN)c4c3)cc12` [Example 4-46, 4-(aminomethyl)-6-(3-(methoxymethyl)-1H-pyrrolo[2,3-b]pyridin-5-yl)phthalazin-1(2H)-one]: the 50% inhibitory concentration (IC50) under setting [1] turned out to be 0.6 nM and the half-inhibitory concentration (IC50) under setting [2] came to 329 nM.

As for `N#Cc1ccc2ncc(-c3ccc4c(=O)[nH]nc(CN)c4c3)n2c1` [Example 4-15, 3-(4-(aminomethyl)-1-oxo-1,2-dihydrophthalazin-6-yl)imidazo[1,2-a]pyridine-6-carbonitrile], the IC50 is, setting by setting: under setting [1], 260 nM; under setting [2], 3870 nM.

As to `CN(C)c1cncc(-c2ccc3c(=O)[nH]nc(CN)c3c2)c1` [Example 4-53, 4-(aminomethyl)-6-(5-(dimethylamino)pyridin-3-yl)phthalazin-1(2H)-one], the concentration for half-maximal inhibition (IC50) was 55 nM under setting [1] and 1140 nM under setting [2].

Take `Cc1c(-c2ccc3c(=O)[nH]nc(CN)c3c2)cncc1C1CC1` [Example 4-5, 4-(aminomethyl)-6-(5-cyclopropyl-4-methylpyridin-3-yl)phthalazin-1(2H)-one]: the IC50 by setting is: under setting [1], 150 nM; under setting [2], 1730 nM.

In the case of `NCc1n[nH]c(=O)c2ccc(-c3cncc(O)c3)cc12` [Example 3-44, 4-(aminomethyl)-6-(5-hydroxypyridin-3-yl)phthalazin-1(2H)-one], the IC50 by setting is: under setting [1], 1200 nM; under setting [2], 19400 nM.

In the case of `NCc1n[nH]c(=O)c2ccc(-c3cnsc3-c3ccccc3)cc12` [Example 4-54, 4-(aminomethyl)-6-(5-phenylisothiazol-4-yl)phthalazin-1(2H)-one], the IC50 by setting is: under setting [1], 77 nM; under setting [2], 1550 nM.

As for `N#Cc1ccc(Oc2cncc(-c3ccc4c(=O)[nH]nc(CN)c4c3)c2)cc1` [Example 7-6, 4-((5-(4-(aminomethyl)-1-oxo-1,2-dihydrophthalazin-6-yl)pyridin-3-yl)oxy)benzonitrile], the IC50 by setting is: under setting [1], 18 nM; under setting [2], 577 nM.

Take `Cc1ncc(-c2ccc3c(=O)[nH]nc(CN)c3c2)n1C` [Example 4-4, 4-(aminomethyl)-6-(1,2-dimethyl-1H-imidazol-5-yl)phthalazin-1(2H)-one]: the concentration for half-maximal inhibition (IC50) amounted to 230 nM under setting [1] and 5910 nM under setting [2].

What is called IC50 is the point on the concentration scale where inhibition reaches its midpoint.
